Measured values taken from PMC6368337, “GluClR-mediated inhibitory postsynaptic currents reveal targets for ivermectin and potential mechanisms of ivermectin resistance” (PLoS Pathogens, 2019).

Key:
[1] = biological target: αβ (1:50) GluClRs (Haemonchus contortus, UniProt O46124+P91730); experiment: Two-electrode voltage clamp in oocytes, αβ (1:50) GluClRs; format: cell-based, H. contortus; conditions: 30 nM; for efficacy (maximal current normalised to saturating glutamate) compared to IVM: normalised to 5 mM glutamate, αβ 1:50; for differential efficacy between α and αβ (1:50) GluClRs: α versus αβ (1:50)
Description: (§1) cDNAs encoding the α (avr-14b) (pcDNA 3.1+) or β (pUNIV) GluClR subunits of H. contortus were nuclear injected into oocytes (NASCO, WI USA) or transfected into HEK293AD cells (CellBank Australia) using a calcium phosphate-DNA co-precipitate method. Synapse formation between neurons and HEK293 cells was promoted by co-transfecting neuroligin 2A or 1B and the cDNA encoding CD4 surface antigen was also added to the transfection mixture so as to identify transfected cells. The oocytes and HEK cells were used for experiments 2–3 days after the introduction of the cDNAs. All experiments were done at room temperature (22 ± 1°C).
(§2) Xenopus laevis oocytes were harvested by surgical incision. The oocytes were then defolliculated with 1.5 mg/ml collagenase for 2 hours. Free oocytes were rinsed with calcium-free OR-2 solution containing (in mM) 82.5 NaCl, 2 KCl, 1 MgCl2, 5 HEPES, pH 7.4 and mature stage V or VI oocytes were isolated for experiments. The DNAs coding for α and β subunits were nuclear injected into the oocytes using a Nanoliter 2000 microinjector (WPI Inc) at a ratio of (α:β), 1:0, 0:1, 1:1 and 1:50. The total amount of injected DNA in all combinations was 400 ng ml^−1, including the 1:50 (α:β) combination (8 ng of DNA encoding the α and 392 ng of DNA encoding β subunits). Injected oocytes were incubated in ND96 storage solution (in mM) 96 NaCl, 2 KCl, 1 MgCl2.6H2O, 1.8 CaCl2, 5 HEPES, 50 μg ml^−1 gentamicin, 2.5 sodium pyruvate, 0.5 theophylline, pH 7.4 at 16°C for 2–3 days before experiment.
(§3) For the two-electrode voltage clamp recordings, each oocyte was secured in a cell bath that was continually perfused with ND96 recording solution (ND96 storage solution without pyruvate, theophylline and gentamicin). […] The two microelectrodes contained 3 M KCl and had resistances of 0.2–2 MΩ. Recordings were done using Clampex 10.2 software (Molecular Devices) at a clamped voltage of −40 mV. Currents were low-pass filtered at 200 Hz, sampled at 2 kHz using a Gene Clamp 500B amplifier and digitised by a Digidata 1440A interface. The IVM (IVM B1a) concentration-response experiments were standardised by using an application protocol that consisted of applying increasing concentrations of IVM for, respectively, 3 min, 3 min, 3 min, 2 min, 1 min, 1 min and 0.5 min.
(§4) Group data were analysed in SigmaPlot 13.0 using one-way ANOVAs, where p < 0.05 was taken as the significance threshold and expressed as mean ± SEM. Tests for normally distributed data are built into the SigmaPlot software. Confocal images were captured and analysed with Zen 2012 SP2 (Zeiss) software. Oocyte concentration-response data were fit to a Hill equation to obtain an EC50 and Hill co-efficient for each oocyte recording. These parameters were then averaged across multiple oocyte experiments of the same type. Single channel recordings were analysed in QuB software. […] The selected critical times eliminated periods of receptor desensitisation while retaining singe receptor active periods. Mean active period duration and intra-activation open probability was estimated from each patch. Group means were obtained by averaging across multiple patches for each recording condition.

[2] = biological target: α (avr-14b) GluClRs (Haemonchus contortus, UniProt O46124); experiment: Two-electrode voltage clamp in oocytes, α GluClRs; format: cell-based, H. contortus; conditions: for efficacy (maximal current normalised to saturating glutamate) compared to IVM: 30 nM, normalised to 5 mM glutamate
Description: as §1, §2, §3, §4

[3] = system: Untransfected HEK293 cells; experiment: Membrane partitioning, time-lapse fluorescence; conditions: 500 nM; for membrane accumulation time constant: change in membrane fluorescence over 30 min, exponential fit
Description: Two types of experiments were conducted with IVM-bdpy. The first was aimed at monitoring the time-course of membrane accumulation. Untransfected HEK293 cells were incubated in extracellular solution containing 500 nM IVM-bdpy and time-lapse images were taken over a period of 30 min (Fig 8A). The change in total membrane fluorescence averaged from 5 repeat experiments was then plotted against time and fitted to a standard exponential function (Fig 8B). In a control experiment, the corresponding accumulation rate was also determined for bdpy. To obtain the net membrane partitioning time-course for IVM-1, the data for the bdpy alone was subtracted from the data obtained for IVM-bdpy (Fig 8B). The time constants for the three plots were 6.5 min for the IVM-bdpy, 8.2 min for the bdpy fluorophore and 6.0 min for IVM-1. As the lipophilic properties of IVM and IVM-1 are similar (logPs of 5.4 and 5.1, respectively), we infer this analysis quantitatively reflects the membrane partitioning properties of IVM. […] It should be noted, however, that the IVM-bdpy experiment was done using a 100-fold higher concentration of drug in un-transfected cells and represents passive membrane accumulation, whereas the current plateau involved IVM binding to and activating receptors.
(§5) Membrane partitioning and FRAP experiments were performed on an LSM 710 inverted 2-photon confocal microscope equipped with a 40X water immersion objective lens (1.2 NA/280 μM WD/0.208 μM/pixel and a GFP/Alexa 488 filter set. Untransfected HEK293 cells at a confluency of 50–75% were plated onto 35-mm glass bottom dishes one day prior to experiments. The IVM-bdpy fluorophore was dissolved in 100% DMSO and stored at ‐20°C at a concentration of 24 mM.
(§6) A Mai Tai eHP 2-photon laser/760-1040 nm was used as an excitation source (power at 920 nm) for the FRAP experiments. The laser and bleaching power were set to 7% and 75% respectively. Membrane partitioning images were taken for 35 min at 0.5 Hz after replacing the cell medium (extracellular solution) with one containing the IVM-bdpy probe at a concentration of 500 nM. FRAP images were taken at a frequency of 0.5 Hz for 10 min after a 30 min equilibration period in 500 nM IVM-bdpy.

[4] = system: Untransfected HEK293 cells; experiment: Fluorescence recovery after photobleaching (FRAP), lateral membrane diffusion
Description: The second experiment was aimed at determining the lateral membrane diffusion properties of IVM using the fluorescence recovery after photobleaching (FRAP) technique. After a 30-min equilibration time, 5 cells were monitored for fluorescence recovery within a bleached circular patch of membrane of 3.7 μm diameter (Fig 8C). Any bleaching and recovery of the surrounding area of the cell was measured, using a similar circular patch and used to correct the recovery rate of the membrane delineated by the bleached area. We also noted that the recovery reached 98 ± 2% of control. The time constant (τ) for recovery of 1.3 minutes was used to calculate the diffusion coefficient (D), using the radius (r) of the bleached patch, according to D = r^2/4τ. The calculated value of D was 1.1 x 10^−2 μm^2s^−1. Over the course of 1 s, the IVM-bdpy probe would traverse 0.2 μm along the membrane surface (lateral diffusion rate of 0.2 μms^−1). […] We infer that this slow lateral diffusion rate coupled to membrane partitioning are the major contributors to local increases of IVM around its target binding sites and the slow quasi-irreversible actions of IVM at GluClRs.
as §5, §6

[5] = system: α GluClRs; experiment: IPSC recording in HEK293-neuron heteroculture, α GluClRs; format: cell-based, H. contortus; conditions: HEK293-neuron co-culture, −70 mV
Description: as §1
Primary neuronal cultures were prepared from cortices of E18 rat embryos, (University of Queensland Biological Services), which were triturated and plated at 100,000 cells per 18-mm poly-D-lysine-coated coverslip in DMEM with 10% fetal bovine serum. After 24 h the entire medium was replaced with Neurobasal medium that included 2% B27 and 1% GlutaMAX supplements. After one week half of this medium was replaced and the neurons were allowed to grow in vitro for 3–5 weeks before introducing the transfected HEK293 cells. Recordings of synaptic currents were done in whole-cell configuration at ‐70 mV using an Axopatch 200B amplifier (Molecular Devices), filtered at 5 kHz and digitized at 20 kHz using Clampex (pClamp 10 suite, Molecular Devices) via a Digidata 1440A digitizer.

Chain of αβ (1:50) GluClRs (O46124 entry or part of it): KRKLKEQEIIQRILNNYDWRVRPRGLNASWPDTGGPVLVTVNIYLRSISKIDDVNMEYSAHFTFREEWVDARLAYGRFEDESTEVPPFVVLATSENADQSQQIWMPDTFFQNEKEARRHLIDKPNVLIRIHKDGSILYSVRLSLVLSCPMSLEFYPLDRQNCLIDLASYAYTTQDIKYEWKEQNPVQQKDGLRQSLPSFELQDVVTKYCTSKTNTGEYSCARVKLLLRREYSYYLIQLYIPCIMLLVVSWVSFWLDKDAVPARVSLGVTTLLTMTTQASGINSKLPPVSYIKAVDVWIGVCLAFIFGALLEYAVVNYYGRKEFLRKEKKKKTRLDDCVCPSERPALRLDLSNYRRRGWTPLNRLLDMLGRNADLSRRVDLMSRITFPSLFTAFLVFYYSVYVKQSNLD
Chain of αβ (1:50) GluClRs (P91730 19-432): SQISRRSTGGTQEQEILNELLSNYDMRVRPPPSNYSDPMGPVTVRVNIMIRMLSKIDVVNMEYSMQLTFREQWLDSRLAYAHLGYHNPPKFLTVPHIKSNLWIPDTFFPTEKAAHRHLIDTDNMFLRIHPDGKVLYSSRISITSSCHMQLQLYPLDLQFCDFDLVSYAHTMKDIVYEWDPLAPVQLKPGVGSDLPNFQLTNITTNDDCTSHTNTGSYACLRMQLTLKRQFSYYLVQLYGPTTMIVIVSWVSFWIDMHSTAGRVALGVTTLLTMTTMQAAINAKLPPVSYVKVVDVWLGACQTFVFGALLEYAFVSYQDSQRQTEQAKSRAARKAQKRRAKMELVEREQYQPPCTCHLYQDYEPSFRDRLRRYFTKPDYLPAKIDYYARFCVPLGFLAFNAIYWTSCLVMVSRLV
Chain of α (avr-14b) GluClRs (O46124 entry or part of it): as the sequence (O46124 entry or part of it) above

Row | Molecule | efficacy (maximal current normalised to saturating glutamate) compared to IVM [1] | differential efficacy between α and αβ (1:50) GluClRs [1] | efficacy (maximal current normalised to saturating glutamate) compared to IVM [2] | membrane accumulation time constant [3] | other results
1 | CC[C@H](C)[C@H]1O[C@]2(CC[C@@H]1C)C[C@@H]1C[C@@H](C/C=C(\C)[C@@H](OCOC)[C@@H](C)/C=C/C=C3\CO[C@@H]4[C@H](O)C(C)=C[C@@H](C(=O)O1)[C@]34O)O2 [IVM-2] | preservation of efficacy | abolished the differential sensitivity | restored efficacy |  | 
2 | CC[C@H](C)[C@H]1O[C@]2(CC[C@@H]1C)C[C@@H]1C[C@@H](C/C=C(\C)[C@@H](OCOC)[C@@H](C)/C=C/C=C3\CO[C@@H]4[C@@H](O)C(C)=C[C@@H](C(=O)O1)[C@]34O)O2 [IVM-3] | most marked reduction in potency | ablated the differential efficacy | most marked reduction in potency |  | 
3 | CCC1=C(C)C2=C(c3ccc(OCc4cn(CCCC(=O)O[C@@H]5/C(C)=C/C[C@@H]6C[C@@H](C[C@]7(CC[C@H](C)[C@@H]([C@@H](C)CC)O7)O6)OC(=O)[C@@H]6C=C(C)[C@@H](O)[C@H]7OC/C(=C\C=C\[C@@H]5C)[C@]76O)nn4)cc3)c3c(C)c(CC)c(C)n3[B-](F)(F)[N+]2=C1C [IVM-bdpy] |  |  |  | 6.5 min | time to saturate whole cell membranes [3]: about 18 minutes; FRAP recovery time constant (τ) ([4]; 500 nM, 30 min equilibration): 1.3 min; diffusion coefficient (D) ([4]; calculated by D = r^2/4τ): 1.1 x 10^−2 μm^2s^−1; lateral diffusion rate ([4]; in cell membrane): 0.2 μms^−1; potency relative to IVM ([2]; concentration-response, n = 6): reduced potency; activity at α GluClRs ([2]; oocyte current): active
4 | C#CCOc1ccc(C2=C3C(C)=C(CC)C(C)=[N+]3[B-](F)(F)n3c(C)c(CC)c(C)c32)cc1 [bdpy] |  |  |  | 8.2 min | 
5 | picrotoxin |  |  |  |  | effect on IPSCs [5]: blocked
